# Laboratory results reported in US20010033854A1, “Anti-microbial compositions” (priority 2000, published 2001).
# Like-named read-outs stand apart in the source and are kept apart here.
# Assays:
# [1] = test system: Staphlococcus epidermidis; assay: Growth inhibition of a relevant micro-organism by chelator; type: cell-based; details: chelator at 3×10^−6 mol.dm^−3 or less
# Description: Inhibition is considered significant when growth of the relevant micro-organism on a supporting medium can be reduced by at least 30% preferably by at least 45%.
# relevant micro-organism = details: cited from earlier work
SMILES,Significant inhibition of growth (reduced by at least 30%) [1],also measured
"O=C(O)CN(CCN(CC(=O)O)CC(=O)O)CC(=O)O [EDTA, ethylenediaminetetraacetic acid]",exclude,
"Oc1cc(Cl)ccc1Oc1ccc(Cl)cc1Cl [triclosan, 2′,4,4′-trichloro-2′-hydroxydiphenyl ether]",,MIC (relevant micro-organism; literature values): 0.01 to 10 µg/mL
"O=C(O)CN(CCN(CC(=O)O)CC(=O)O)CCN(CC(=O)O)CC(=O)O [DTPA, diethylenetriaminepentaacetic acid]",capable of achieving significant inhibition,
"CC(C)=CCCC(C)=CCCC(C)=CCO [farnesol, 3,7,11-trimethyldodeca-2,6,10-trienol]",,MIC (relevant micro-organism; literature values): ca. 25 μg.ml^−1
CCO [ethanol],,MIC (relevant micro-organism; ethanol and similar alkanols): greater than 1 mg.ml^−1
"O=C(O)CN(CCN(CCN(CC(=O)O)CC(=O)O)CC(=O)O)CCN(CC(=O)O)CC(=O)O [TTHA, triethylenetetraaminehexaacetic acid]",capable of achieving significant inhibition,
"O=C(O)CN(CC(=O)O)[C@@H]1CCCC[C@H]1N(CC(=O)O)CC(=O)O (relative stereo) [CDTA, trans-1,2-diaminocyclohexane-N,N,N′,N′-tetraacetic acid]",exclude,
